In ChEMBL document CHEMBL3407338, “Synthesis and structure-activity relationship of novel 1,4-diazabicyclo[2.2.2]octane derivatives as potent antimicrobial agents” (Eur J Med Chem, 2015):
In brackets after ≈: the same amount, converted by molar mass.

Test system: Escherichia coli
Assay: Antimicrobial activity against 10^7 CFU/ml Escherichia coli ATCC 25922 after 22 hrs by serial microdilution method
Type: functional
Details: ATCC 25922, 22 h

Row | Compound | MBC [µg/mL] | MIC [µg/mL]
1 | O=C(O)c1cn(C2CC2)c2cc(N3CCNCC3)c(F)cc2c1=O [CIPROFLOXACIN] | < 0.8 | < 0.8
2 | CCCCCCCC[N+]12CC[N+](CCCCC[N+]34CC[N+](CCCCCCCC)(CC3)CC4)(CC1)CC2.[Br-].[Br-].[Br-].[Br-] | 100 | 25

Test system: Candida albicans
Assay: Antimicrobial activity against 10^4 CFU/ml Candida albicans ATCC 32354 after 22 hrs by serial microdilution method
Type: functional
Details: ATCC 32354, 22 h

Row | Compound | MBC [µg/mL] | MIC [µg/mL]
3 | O=C(O)c1cn(C2CC2)c2cc(N3CCNCC3)c(F)cc2c1=O [CIPROFLOXACIN] | > 100 | > 100
4 | CCCCCCCC[N+]12CC[N+](CCCCC[N+]34CC[N+](CCCCCCCC)(CC3)CC4)(CC1)CC2.[Br-].[Br-].[Br-].[Br-] | < 1.6 | < 1.6

Test system: Escherichia coli
Assay: Antimicrobial activity against Escherichia coli ATCC 25922 at 1 ug/ml after 24 hrs by agar diffusion method
Type: functional
Details: ATCC 25922, 24 h, read-out: DIZ

Row | Compound | zone of inhibition at 1 µg/mL [mm]
5 | CC[N+]12CC[N+](CCCCC[N+]34CC[N+](CC)(CC3)CC4)(CC1)CC2 | 0
6 | O=C(O)c1cn(C2CC2)c2cc(N3CCNCC3)c(F)cc2c1=O [CIPROFLOXACIN] | 30
7 | CCCCCCCC[N+]12CC[N+](CCCCC[N+]34CC[N+](CCCCCCCC)(CC3)CC4)(CC1)CC2.[Br-].[Br-].[Br-].[Br-] | 4
8 | CCC[N+]12CC[N+](CCCCC[N+]34CC[N+](CCC)(CC3)CC4)(CC1)CC2 | 0
9 | CCCCCCC[N+]12CC[N+](CCCCC[N+]34CC[N+](CCCCCCC)(CC3)CC4)(CC1)CC2 | 4

Test system: Bacillus subtilis
Assay: Antimicrobial activity against 10^4 CFU/ml Bacillus subtilis ATCC 6633 after 22 hrs by serial microdilution method
Type: functional
Details: ATCC 6633, 22 h

Row | Compound | MBC [µg/mL] | MIC [µg/mL]
10 | O=C(O)c1cn(C2CC2)c2cc(N3CCNCC3)c(F)cc2c1=O [CIPROFLOXACIN] | < 0.8 | < 0.8
11 | CCCCCCCC[N+]12CC[N+](CCCCC[N+]34CC[N+](CCCCCCCC)(CC3)CC4)(CC1)CC2.[Br-].[Br-].[Br-].[Br-] | 50 | 25

Test system: Candida albicans
Assay: Antimicrobial activity against Candida albicans ATCC 32354 at 1 ug/ml after 24 hrs by agar diffusion method
Type: functional
Details: ATCC 32354, 24 h, read-out: DIZ

Row | Compound | zone of inhibition at 1 µg/mL [mm]
12 | CC[N+]12CC[N+](CCCCC[N+]34CC[N+](CC)(CC3)CC4)(CC1)CC2 | 0
13 | O=C(O)c1cn(C2CC2)c2cc(N3CCNCC3)c(F)cc2c1=O [CIPROFLOXACIN] | 0
14 | CCCCCCCC[N+]12CC[N+](CCCCC[N+]34CC[N+](CCCCCCCC)(CC3)CC4)(CC1)CC2.[Br-].[Br-].[Br-].[Br-] | 0
15 | CCC[N+]12CC[N+](CCCCC[N+]34CC[N+](CCC)(CC3)CC4)(CC1)CC2 | 0
16 | CCCCCCC[N+]12CC[N+](CCCCC[N+]34CC[N+](CCCCCCC)(CC3)CC4)(CC1)CC2 | 0

Test system: Pseudomonas aeruginosa
Assay: Antimicrobial activity against Pseudomonas aeruginosa ATCC 9027 at 1 ug/ml after 24 hrs by agar diffusion method
Type: functional
Details: ATCC 9027, 24 h, read-out: DIZ

Row | Compound | zone of inhibition at 1 µg/mL [mm]
17 | CC[N+]12CC[N+](CCCCC[N+]34CC[N+](CC)(CC3)CC4)(CC1)CC2 | 0
18 | O=C(O)c1cn(C2CC2)c2cc(N3CCNCC3)c(F)cc2c1=O [CIPROFLOXACIN] | 20
19 | CCCCCCCC[N+]12CC[N+](CCCCC[N+]34CC[N+](CCCCCCCC)(CC3)CC4)(CC1)CC2.[Br-].[Br-].[Br-].[Br-] | 0
20 | CCC[N+]12CC[N+](CCCCC[N+]34CC[N+](CCC)(CC3)CC4)(CC1)CC2 | 0
21 | CCCCCCC[N+]12CC[N+](CCCCC[N+]34CC[N+](CCCCCCC)(CC3)CC4)(CC1)CC2 | 0

Test system: Salmonella enterica
Assay: Antimicrobial activity against 10^4 CFU/ml Salmonella enterica ATCC 14028 after 22 hrs by serial microdilution method
Type: functional
Details: ATCC 14028, 22 h

Row | Compound | MBC [µg/mL] | MIC [µg/mL]
22 | O=C(O)c1cn(C2CC2)c2cc(N3CCNCC3)c(F)cc2c1=O [CIPROFLOXACIN] | < 0.8 | < 0.8
23 | CCCCCCCC[N+]12CC[N+](CCCCC[N+]34CC[N+](CCCCCCCC)(CC3)CC4)(CC1)CC2.[Br-].[Br-].[Br-].[Br-] | 100 | 100

Test system: Staphylococcus aureus
Assay: Antimicrobial activity against 10^4 CFU/ml Staphylococcus aureus ATCC 25923 after 22 hrs by serial microdilution method
Type: functional
Details: ATCC 25923, 22 h

Row | Compound | MBC [µg/mL] | MIC [µg/mL]
24 | O=C(O)c1cn(C2CC2)c2cc(N3CCNCC3)c(F)cc2c1=O [CIPROFLOXACIN] | < 0.8 | < 0.8
25 | CCCCCCCC[N+]12CC[N+](CCCCC[N+]34CC[N+](CCCCCCCC)(CC3)CC4)(CC1)CC2.[Br-].[Br-].[Br-].[Br-] | 100 | 12.5

Test system: Staphylococcus aureus
Assay: Antimicrobial activity against Staphylococcus aureus ATCC 25923 at 1 ug/ml after 24 hrs by agar diffusion method
Type: functional
Details: ATCC 25923, 24 h, read-out: DIZ

Row | Compound | zone of inhibition at 1 µg/mL [mm]
26 | CC[N+]12CC[N+](CCCCC[N+]34CC[N+](CC)(CC3)CC4)(CC1)CC2 | 0
27 | O=C(O)c1cn(C2CC2)c2cc(N3CCNCC3)c(F)cc2c1=O [CIPROFLOXACIN] | 25
28 | CCCCCCCC[N+]12CC[N+](CCCCC[N+]34CC[N+](CCCCCCCC)(CC3)CC4)(CC1)CC2.[Br-].[Br-].[Br-].[Br-] | 8
29 | CCC[N+]12CC[N+](CCCCC[N+]34CC[N+](CCC)(CC3)CC4)(CC1)CC2 | 0
30 | CCCCCCC[N+]12CC[N+](CCCCC[N+]34CC[N+](CCCCCCC)(CC3)CC4)(CC1)CC2 | 5

Test system: Salmonella enterica
Assay: Antimicrobial activity against 10^7 CFU/ml Salmonella enterica ATCC 14028 after 22 hrs by serial microdilution method
Type: functional
Details: ATCC 14028, 22 h

Row | Compound | MBC [µg/mL] | MIC [µg/mL]
31 | O=C(O)c1cn(C2CC2)c2cc(N3CCNCC3)c(F)cc2c1=O [CIPROFLOXACIN] | < 0.8 | < 0.8
32 | CCCCCCCC[N+]12CC[N+](CCCCC[N+]34CC[N+](CCCCCCCC)(CC3)CC4)(CC1)CC2.[Br-].[Br-].[Br-].[Br-] | > 100 | 100

Test system: Bacillus subtilis
Assay: Antimicrobial activity against 10^7 CFU/ml Bacillus subtilis ATCC 6633 after 22 hrs by serial microdilution method
Type: functional
Details: ATCC 6633, 22 h

Row | Compound | MBC [µg/mL] | MIC [µg/mL]
33 | O=C(O)c1cn(C2CC2)c2cc(N3CCNCC3)c(F)cc2c1=O [CIPROFLOXACIN] | < 0.8 | < 0.8
34 | CCCCCCCC[N+]12CC[N+](CCCCC[N+]34CC[N+](CCCCCCCC)(CC3)CC4)(CC1)CC2.[Br-].[Br-].[Br-].[Br-] | 100 | 50

Test system: Pseudomonas aeruginosa
Assay: Antimicrobial activity against 10^7 CFU/ml Pseudomonas aeruginosa ATCC 9027 after 22 hrs by serial microdilution method
Type: functional
Details: ATCC 9027, 22 h

Row | Compound | MBC [µg/mL] | MIC [µg/mL]
35 | O=C(O)c1cn(C2CC2)c2cc(N3CCNCC3)c(F)cc2c1=O [CIPROFLOXACIN] | 3.1 (≈ 9.36 µM) | 1.6 (≈ 4.83 µM)
36 | CCCCCCCC[N+]12CC[N+](CCCCC[N+]34CC[N+](CCCCCCCC)(CC3)CC4)(CC1)CC2.[Br-].[Br-].[Br-].[Br-] | > 100 | > 100

Test system: Salmonella enterica
Assay: Antimicrobial activity against Salmonella enterica ATCC 14028 at 1 ug/ml after 24 hrs by agar diffusion method
Type: functional
Details: ATCC 14028, 24 h, read-out: DIZ

Row | Compound | zone of inhibition at 1 µg/mL [mm]
37 | CC[N+]12CC[N+](CCCCC[N+]34CC[N+](CC)(CC3)CC4)(CC1)CC2 | 0
38 | O=C(O)c1cn(C2CC2)c2cc(N3CCNCC3)c(F)cc2c1=O [CIPROFLOXACIN] | 35
39 | CCCCCCCC[N+]12CC[N+](CCCCC[N+]34CC[N+](CCCCCCCC)(CC3)CC4)(CC1)CC2.[Br-].[Br-].[Br-].[Br-] | 4
40 | CCC[N+]12CC[N+](CCCCC[N+]34CC[N+](CCC)(CC3)CC4)(CC1)CC2 | 0
41 | CCCCCCC[N+]12CC[N+](CCCCC[N+]34CC[N+](CCCCCCC)(CC3)CC4)(CC1)CC2 | 0

Test system: Pseudomonas aeruginosa
Assay: Antimicrobial activity against 10^4 CFU/ml Pseudomonas aeruginosa ATCC 9027 after 22 hrs by serial microdilution method
Type: functional
Details: ATCC 9027, 22 h

Row | Compound | MBC [µg/mL] | MIC [µg/mL]
42 | O=C(O)c1cn(C2CC2)c2cc(N3CCNCC3)c(F)cc2c1=O [CIPROFLOXACIN] | 3.1 (≈ 9.36 µM) | 1.6 (≈ 4.83 µM)
43 | CCCCCCCC[N+]12CC[N+](CCCCC[N+]34CC[N+](CCCCCCCC)(CC3)CC4)(CC1)CC2.[Br-].[Br-].[Br-].[Br-] | 50 | 25

Test system: Escherichia coli
Assay: Antimicrobial activity against 10^4 CFU/ml Escherichia coli ATCC 25922 after 22 hrs by serial microdilution method
Type: functional
Details: ATCC 25922, 22 h

Row | Compound | MBC [µg/mL] | MIC [µg/mL]
44 | O=C(O)c1cn(C2CC2)c2cc(N3CCNCC3)c(F)cc2c1=O [CIPROFLOXACIN] | < 0.8 | < 0.8
45 | CCCCCCCC[N+]12CC[N+](CCCCC[N+]34CC[N+](CCCCCCCC)(CC3)CC4)(CC1)CC2.[Br-].[Br-].[Br-].[Br-] | 50 | 12.5

Test system: Bacillus subtilis
Assay: Antimicrobial activity against Bacillus subtilis ATCC 6633 at 1 ug/ml after 24 hrs by agar diffusion method
Type: functional
Details: ATCC 6633, 24 h, read-out: DIZ

Row | Compound | zone of inhibition at 1 µg/mL [mm]
46 | CC[N+]12CC[N+](CCCCC[N+]34CC[N+](CC)(CC3)CC4)(CC1)CC2 | 0
47 | O=C(O)c1cn(C2CC2)c2cc(N3CCNCC3)c(F)cc2c1=O [CIPROFLOXACIN] | 30
48 | CCCCCCCC[N+]12CC[N+](CCCCC[N+]34CC[N+](CCCCCCCC)(CC3)CC4)(CC1)CC2.[Br-].[Br-].[Br-].[Br-] | 10
49 | CCC[N+]12CC[N+](CCCCC[N+]34CC[N+](CCC)(CC3)CC4)(CC1)CC2 | 0
50 | CCCCCCC[N+]12CC[N+](CCCCC[N+]34CC[N+](CCCCCCC)(CC3)CC4)(CC1)CC2 | 5

Test system: Staphylococcus aureus
Assay: Antimicrobial activity against 10^7 CFU/ml Staphylococcus aureus ATCC 25923 after 22 hrs by serial microdilution method
Type: functional
Details: ATCC 25923, 22 h

Row | Compound | MBC [µg/mL] | MIC [µg/mL]
51 | O=C(O)c1cn(C2CC2)c2cc(N3CCNCC3)c(F)cc2c1=O [CIPROFLOXACIN] | < 0.8 | < 0.8
52 | CCCCCCCC[N+]12CC[N+](CCCCC[N+]34CC[N+](CCCCCCCC)(CC3)CC4)(CC1)CC2.[Br-].[Br-].[Br-].[Br-] | > 100 | 50

Test system: Candida albicans
Assay: Antimicrobial activity against 10^7 CFU/ml Candida albicans ATCC 32354 after 22 hrs by serial microdilution method
Type: functional
Details: ATCC 32354, 22 h

Row | Compound | MBC [µg/mL] | MIC [µg/mL]
53 | O=C(O)c1cn(C2CC2)c2cc(N3CCNCC3)c(F)cc2c1=O [CIPROFLOXACIN] | 100 (≈ 302 µM) | 100 (≈ 302 µM)
54 | CCCCCCCC[N+]12CC[N+](CCCCC[N+]34CC[N+](CCCCCCCC)(CC3)CC4)(CC1)CC2.[Br-].[Br-].[Br-].[Br-] | < 1.6 | < 1.6
